Assay results: article PMC11012124, “Synthesis of Novel Triazine-Based Chalcones and 8,9-dihydro-7H-pyrimido[4,5-b][1,4]diazepines as Potential Leads in the Search of Anticancer, Antibacterial and Antifungal Agents” (International Journal of Molecular Sciences, 2024)
Converted amounts (≈) assume the structure as drawn.

What was measured:
TK-10 = experiment: cells; conditions: Homo sapiens, TK-10, 48 h; for CC50: read-out: LC50
K-562 = experiment: cells; conditions: Homo sapiens, K562, 48 h; for GI50: K-562, 48 h; for CC50: read-out: LC50
HL-60(TB) = experiment: cells; conditions: Homo sapiens, HL-60, 48 h; for CC50: read-out: LC50
SN12C = experiment: cells; conditions: Homo sapiens, 48 h; for CC50: read-out: LC50
MCF7 = experiment: cells; conditions: Homo sapiens, MCF7, 48 h; for CC50: read-out: LC50
NCI-H460 = experiment: cells; conditions: Homo sapiens, NCI-H460, 48 h; for CC50: read-out: LC50
NCI-H23 = experiment: cells; conditions: Homo sapiens, NCI-H23, 48 h; for CC50: read-out: LC50
SK-MEL-5 = experiment: cells; conditions: Homo sapiens, SK-MEL-5, 48 h; for CC50: read-out: LC50
OVCAR-4 = experiment: cells; conditions: Homo sapiens, OVCAR-4, 48 h; for CC50: read-out: LC50
CCRF-CEM = experiment: cells; conditions: Homo sapiens, 48 h; for CC50: read-out: LC50
SR = experiment: cells; conditions: Homo sapiens, 48 h; for CC50: read-out: LC50
A498 = experiment: cells; conditions: Homo sapiens, A498, 48 h; for CC50: read-out: LC50
HOP-92 = experiment: cells; conditions: Homo sapiens, HOP-92, 48 h; for CC50: read-out: LC50
786-0 = experiment: cells; conditions: Homo sapiens, 786-0, 48 h; for CC50: read-out: LC50
SK-MEL-2 = experiment: cells; conditions: Homo sapiens, SK-MEL-2, 48 h; for CC50: read-out: LC50
IGROV1 = experiment: cells; conditions: Homo sapiens, IGROV-1, 48 h; for CC50: read-out: LC50
MDA-MB-435 = experiment: cells; conditions: Homo sapiens, MDA-MB-435, 48 h; for CC50: read-out: LC50
OVCAR-5 = experiment: cells; conditions: Homo sapiens, OVCAR-5, 48 h; for CC50: read-out: LC50
LOX IMVI = experiment: cells; conditions: Homo sapiens, 48 h; for CC50: read-out: LC50, LOX IMVI, 48 h
NCI-H226 = experiment: cells; conditions: Homo sapiens, NCI-H226, 48 h; for CC50: read-out: LC50
SF-295 = experiment: cells; conditions: Homo sapiens, SF-295, 48 h; for CC50: read-out: LC50
OVCAR-3 = experiment: cells; conditions: Homo sapiens, OVCAR-3, 48 h; for CC50: read-out: LC50
UACC-257 = experiment: cells; conditions: Homo sapiens, UACC-257, 48 h; for CC50: read-out: LC50
SF-268 = experiment: cells; conditions: Homo sapiens, SF-268, 48 h; for CC50: read-out: LC50
A. flavus (ATCC 9170) = experiment: Antifungal broth microdilution (CLSI); format: cell-based; conditions: ATCC9170; Afl: Aspergillus flavus
How it was run: (§1)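 Broth microdilution followed CLSI M27-A3 for yeasts and the filamentous-fungi reference method, in 200 μL final volume with DMSO-matched growth controls. Plates were incubated in the dark and humid at 30 °C for a time suited to each fungus; testing was done in triplicate.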

[1] = test system: Trichophyton rubrum (CCC 134-2000); experiment: Antifungal broth microdilution (CLSI); format: cell-based; conditions: Tr: Trichophyton rubrum
How it was run: as §1

[2] = test system: Cryptococcus neoformans (ATCC 32264); experiment: Antifungal broth microdilution (CLSI); format: cell-based; conditions: ATCC32264; Cn: Cryptococcus neoformans
How it was run: as §1

[3] = test system: Candida albicans (ATCC 10231); experiment: Antifungal broth microdilution (CLSI); format: cell-based; conditions: ATCC10231; Ca: Candida albicans
How it was run: as §1

[4] = test system: Trichophyton mentagrophytes (CCC 202-2000); experiment: Antifungal broth microdilution (CLSI); format: cell-based; conditions: Tm: Trichophyton mentagrophytes
How it was run: as §1

A. niger (ATCC 9029) = experiment: Antifungal broth microdilution (CLSI); format: cell-based; conditions: ATCC9029; Ani: Aspergillus niger
How it was run: as §1

NCI/ADR-RES = experiment: cells; conditions: Homo sapiens, 48 h

## COc1cc(/C=C/C(=O)c2cc(OC)c(OC)c(OC)c2)ccc1Oc1nc(Nc2ccc(F)cc2)nc(N(C)C)n1 [21d]
TK-10
  GI50: 2.53 µM
  CC50: 38.1 µM
K-562
  GI50: 1.4 µM
  CC50: > 100 µM
HL-60(TB)
  GI50: 2.21 µM
  CC50: > 100 µM
SN12C
  GI50: 1.23 µM
  CC50: 6.04 µM
MCF7
  GI50: 1.06 µM
  CC50: 67 µM
NCI-H460
  GI50: 1.45 µM
  CC50: 7.53 µM
NCI-H23
  GI50: 1.63 µM
  CC50: 8.08 µM
SK-MEL-5
  GI50: 2.16 µM
  CC50: 12.2 µM
OVCAR-4
  GI50: 2.07 µM
  CC50: > 100 µM
CCRF-CEM
  GI50: 2.19 µM
  CC50: > 100 µM
SR
  GI50: 0.7 µM
  CC50: > 100 µM
A498
  GI50: 3.99 µM
  CC50: 38.9 µM
HOP-92
  GI50: 1.67 µM
  CC50: 50.9 µM
786-0
  GI50: 1.45 µM
  CC50: 7.19 µM
SK-MEL-2
  GI50: 1.69 µM
  CC50: 8.47 µM
IGROV1
  GI50: 1.93 µM
  CC50: 12.2 µM
MDA-MB-435
  GI50: 1.63 µM
  CC50: 7.69 µM
OVCAR-5
  GI50: 1.48 µM
  CC50: 11.6 µM
LOX IMVI
  GI50: 0.478 µM
  CC50: 4.11 µM
NCI-H226
  GI50: 1.44 µM
  CC50: 7.24 µM
SF-295
  GI50: 1.98 µM
  CC50: 19.6 µM
OVCAR-3
  GI50: 2.57 µM
  CC50: > 100 µM
UACC-257
  GI50: 2.83 µM
  CC50: > 100 µM
SF-268
  GI50: 3.43 µM
  CC50: > 100 µM
A. flavus (ATCC 9170)
  MIC: > 250 µg/mL
[1]
  MIC: 125 µg/mL (≈ 217 µM)
[2]
  MIC: > 250 µg/mL
[3]
  MIC: > 250 µg/mL
[4]
  MIC: > 250 µg/mL
A. niger (ATCC 9029)
  MIC: 125 µg/mL (≈ 217 µM)
NCI/ADR-RES
  GI50: 1.42 µM
NCI/ADR-RES; read-out: LC50
  CC50: 8.08 µM

## CN(C)c1nc(NCCNS(=O)(=O)c2ccc(C(=O)/C=C/c3ccc(Cl)cc3)cc2)nc(N2CCOCC2)n1 [23e]
TK-10
  GI50: 15.8 µM
  CC50: 54.7 µM
K-562
  GI50: 3.71 µM
  CC50: > 100 µM
HL-60(TB)
  GI50: 14.7 µM
  CC50: > 100 µM
SN12C
  GI50: 14.4 µM
  CC50: 53.8 µM
MCF7
  GI50: 2.37 µM
  CC50: 34.6 µM
NCI-H460
  GI50: 16.8 µM
  CC50: 67.1 µM
NCI-H23
  GI50: 15.7 µM
  CC50: 55.6 µM
SK-MEL-5
  GI50: 16.3 µM
  CC50: 55.6 µM
OVCAR-4
  GI50: 14.7 µM
  CC50: 57.2 µM
CCRF-CEM
  GI50: 6.86 µM
  CC50: > 100 µM
SR
  GI50: 2.52 µM
  CC50: > 100 µM
A498
  GI50: 12.4 µM
  CC50: 50.8 µM
HOP-92
  GI50: 15.1 µM
  CC50: 67.8 µM
786-0
  GI50: 14.8 µM
  CC50: 55.9 µM
SK-MEL-2
  GI50: 16.5 µM
  CC50: 56 µM
IGROV1
  GI50: 3.08 µM
  CC50: 36.8 µM
MDA-MB-435
  GI50: 12.8 µM
  CC50: 55.3 µM
OVCAR-5
  GI50: 15 µM
  CC50: 53.9 µM
LOX IMVI
  GI50: 1.71 µM
  CC50: 6.13 µM
NCI-H226
  GI50: 15.7 µM
  CC50: 73.8 µM
SF-295
  GI50: 13.3 µM
  CC50: 52.8 µM
OVCAR-3
  GI50: 17.9 µM
  CC50: 70.5 µM
UACC-257
  GI50: 16.2 µM
  CC50: 55.7 µM
SF-268
  GI50: 17.7 µM
  CC50: > 100 µM
A. flavus (ATCC 9170)
  MIC: > 250 µg/mL
[1]
  MIC: 125 µg/mL (≈ 218 µM)
[2]
  MIC: 250 µg/mL (≈ 437 µM)
[3]
  MIC: 250 µg/mL (≈ 437 µM)
[4]
  MIC: > 250 µg/mL
A. niger (ATCC 9029)
  MIC: > 250 µg/mL
